We go through two molecules from patent publication US20260183393A1, “IMMUNOSUPPRESSANT-RESISTANT MODIFIED ALLOGENEIC MODIFIED IMMUNE CELLS AND METHODS FOR USE THEREOF” (Beam Therapeutics Inc., priority 2023, published 2026).

The test system of experiment [1] is T cell-driven rejection of allogeneic HLA-I^+ CAR-T cells. The experiment in a line: HIS mouse-driven allorejection model, 4CAR-T cell persistence. Particulars: for rejection of peripheral allogeneic HLA^+ CAR-T cells: RPM 1 mg kg-1 or TAC 10 mg kg-1 daily intraperitoneal for 2 weeks, 1- and 2-weeks post-treatment initiation. It is filed as in vivo, human immune system (HIS) mice. How it is done: Female (aged 6-8 weeks) NOD.Cg-Prkdc^scidIL2rg^tm1Wjl/SzJ (NSG) mice (Jackson Laboratory) were maintained in a pathogen-free facility. Briefly, to generate BLT humanized mice, NSG mice were anesthetized and whole-body irradiated (2 Gy), and then implanted with 1 mm^3 fragments of human fetal liver and thymus tissue beneath the murine kidney capsule. Following, 1×10^5 autologous fetal liver-derived CD34^+ hematopoietic stem cells (HSCs) were intravenously injected within 6 hours of transplantation. Beam Therapeutics commercially obtained female NOD-Prkdc^em26Ca52 IL2rg^em26CD22/NjuCrl (NCG) CD34^+ humanized (huNCG) mice from Charles River and female (aged 6-8 weeks) NSG-Tg(IL15)1Sz/SzJ (NSG-IL15tg) mice from Jackson Laboratory. Mice were maintained in a pathogen-free facility at CRADL. Briefly, huCD34-NCG mice were generated from female (aged 4-6 weeks) NCG mice that were myeloablated and then intravenously infused with human umbilical cord blood-derived CD34^+ stem cells from a qualified source. Humanized NK (huNK) mice were generated by supplementing the water of NSG-IL-15tg with Baytril (Bayer) for 1 week followed by whole-body irradiation (2 Gy). 5×10^6 primary human CD56^+ NK cells were then intravenously injected 24 hours later and permitted to engraft. At both facilities, mice were housed in microisolator cages and fed autoclaved food and water. Animal rooms were maintained at 72±2° F., 30-70% relative humidity and were on a 12:12 h light/dark cycle. Human reconstitution was assessed from 12-17 weeks post-transplant in BLT and huNCG mice, and 2-3 weeks post-transplant in huNK mice. […]
For the studies described in FIGS. 16A to 16J, BLT mice were used Cohort #2 (n=12) and Cohort #5 (n=13), and huNCG mice were used in Cohort #1 (n=10), Cohort #3 (n=12) and Cohort #4 (n=10). […] Persistence of 4CAR-T cells was monitored at 1-day post-T cell infusion and weekly thereafter via blood draws from the retro-orbital sinus or submandibular vein. […]

The subject of experiment [2] is NK cells. Description: NK cell-mediated lysis of HLA class-I negative T cells with immunosuppressants. It is filed as cell-based, human. Particulars: 10 μg/mL; 4:1 effector-to-target ratio; 48 hours of co-culture. How it is done:
The rightmost plots represent the ratio of HLA class-I negative (target cells) and positive T cells in the absence of any NK cells (effector cells) (i.e., a culture with an effector-to-target cell ratio (E:T) of 0:1 because the culture contained no effector cells and only the target cells). Primary human NK cells were activated in vitro with IL-2 and IL-15 cytokines for 72 hours. The activated NK cells were then cultured for 24 hours in the presence of rapamycin (10 μg/mL), tacrolimus (10 μg/mL), or a dimethylsulfoxide (DMSO) control. After the 24 hours, the NK cells were then co-cultured at a 4:1 effector-to-target ratio with an equal mixture of unedited HLA class-I positive (off-target cells) or beta-2-microglobulin (B2M) knock-out (HLA class-I deficient) T cells (target cells) in the presence or absence if the immunosuppressant rapamycin or tacrolimus. T cells co-cultured in the absence of NK cells (0:1 E:T ratio) were used as control. Following 48 hours of co-culture, the frequency of HLA class-I negative and positive T cells was assessed using flow cytometry by immunostaining for pan HLA class-I (ABC). The numbers within each plot indicate the percent of total cells counted falling within the indicated region, where the left regions correspond to HLA class-I negative cells and the right regions correspond to HLA class-I positive cells. […]

In the case of `C=CC[C@@H]1/C=C(\C)C[C@H](C)C[C@H](OC)[C@H]2O[C@@](O)(C(=O)C(=O)N3CCCC[C@H]3C(=O)O[C@H](/C(C)=C/[C@@H]3CC[C@@H](O)[C@H](OC)C3)[C@H](C)[C@@H](O)CC1=O)[C@H](C)C[C@@H]2OC` [tacrolimus, Tacrolimus], in experiment [1], the “rejection of peripheral allogeneic HLA^+ CAR-T cells” value is given as “significantly mitigated rejection”. Moreover, the “cumulative allogeneic HLA^+ CAR-T cell persistence” value in experiment [1] (during the treatment window and post-treatment withdrawal, AUC) was “improved cumulative allogeneic HLA^+ CAR-T cell persistence”. In experiment [2], the “NK cell-mediated lysis of HLA class-I negative T cells” value is given as “attenuated”.
In the case of `CO[C@H]1C[C@@H]2CC[C@@H](C)[C@@](O)(O2)C(=O)C(=O)N2CCCC[C@H]2C(=O)O[C@H]([C@H](C)C[C@@H]2CC[C@@H](O)[C@H](OC)C2)CC(=O)[C@H](C)/C=C(\C)[C@@H](O)[C@@H](OC)C(=O)[C@H](C)C[C@H](C)/C=C/C=C/C=C/1C` [rapamycin, Rapamycin], in experiment [1], the “rejection of peripheral allogeneic HLA^+ CAR-T cells” value is “significantly mitigated rejection”. Besides, the “NK cell-mediated lysis of HLA class-I negative T cells” value in experiment [2] is reported as “attenuated”.
